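Method: 48-hour compound exposure of cells in 96-well plates, five concentrations, linear interpolation of endpoints. The concentration for 50% growth inhibition is given as GI50.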 Calls of active or inactive are those of the source. Rule as the data show it: active = GI50 up to about 1.1 µM and inactive = higher.
How the values were obtained:
Test in all cases: inhibition of tumour cell growth, NCI panel, 48 h
MCF7 = test system: MCF7
SNB-75 = test system: SNB-75
NCI-H460 = test system: NCI-H460
SF-268 = test system: SF-268
HOP-62 = test system: HOP-62
NCI-H522 = test system: NCI-H522
SK-MEL-2 = test system: SK-MEL-2
SK-OV-3 = test system: SK-OV-3
ACHN = test system: ACHN
Malme-3M = test system: Malme-3M
UACC-62 = test system: UACC-62
UACC-257 = test system: UACC-257
HOP-92 = test system: HOP-92
TK-10 = test system: TK-10
CCRF-CEM = test system: CCRF-CEM
K562 = test system: K562
T47D = test system: T47D
SNB-19 = test system: SNB-19
SK-MEL-5 = test system: SK-MEL-5
KM12 = test system: KM12
HCC 2998 = test system: HCC 2998
OVCAR-8 = test system: OVCAR-8
SN12C = test system: SN12C
MDA-N = test system: MDA-N
HT-29 = test system: HT-29
786-0 = test system: 786-0
RXF 393 = test system: RXF 393
SF-539 = test system: SF-539
U-251 = test system: U-251
IGROV-1 = test system: IGROV-1
LOX IMVI = test system: LOX IMVI
A498 = test system: A498
PC-3 = test system: PC-3
NCI-H226 = test system: NCI-H226
BT-549 = test system: BT-549
Hs-578T = test system: Hs-578T
MDA-MB-231 = test system: MDA-MB-231
MOLT-4 = test system: MOLT-4
OVCAR-4 = test system: OVCAR-4
CAKI-1 = test system: CAKI-1
MDA-MB-435 = test system: MDA-MB-435
NCI-H23 = test system: NCI-H23
HCT-15 = test system: HCT-15
A549 = test system: A549
OVCAR-5 = test system: OVCAR-5
COLO 205 = test system: COLO 205
OVCAR-3 = test system: OVCAR-3
SF-295 = test system: SF-295
HL-60 = test system: HL-60
HCT-116 = test system: HCT-116
SK-MEL-28 = test system: SK-MEL-28
EKVX = test system: EKVX
M14 = test system: M14
DU-145 = test system: DU-145
SW-620 = test system: SW-620
RPMI-8226 = test system: RPMI-8226
NCI/ADR-RES = test system: NCI/ADR-RES
UO-31 = test system: UO-31
SR = test system: SR

## CC1(C)C(N2CCOCC2)CS1(=O)=O (stereo not given)
MCF7
  GI50: > 10 µM (inactive)
SNB-75
  GI50: 4.98 µM (inactive)
NCI-H460
  GI50: > 10 µM (inactive)
SF-268
  GI50: > 10 µM (inactive)
HOP-62
  GI50: > 10 µM (inactive)
NCI-H522
  GI50: > 10 µM (inactive)
SK-MEL-2
  GI50: > 10 µM (inactive)
SK-OV-3
  GI50: > 10 µM (inactive)
ACHN
  GI50: > 10 µM (inactive)
Malme-3M
  GI50: > 10 µM (inactive)
UACC-62
  GI50: > 10 µM (inactive)
UACC-257
  GI50: > 10 µM (inactive)
HOP-92
  GI50: > 10 µM (inactive)
TK-10
  GI50: > 10 µM (inactive)
CCRF-CEM
  GI50: > 10 µM (inactive)
K562
  GI50: > 10 µM (inactive)
T47D
  GI50: > 10 µM (inactive)
SNB-19
  GI50: > 10 µM (inactive)
SK-MEL-5
  GI50: > 10 µM (inactive)
KM12
  GI50: > 10 µM (inactive)
HCC 2998
  GI50: > 10 µM (inactive)
OVCAR-8
  GI50: > 10 µM (inactive)
SN12C
  GI50: > 10 µM (inactive)
MDA-N
  GI50: > 10 µM (inactive)
HT-29
  GI50: > 10 µM (inactive)
786-0
  GI50: > 10 µM (inactive)
RXF 393
  GI50: > 10 µM (inactive)
SF-539
  GI50: > 10 µM (inactive)
U-251
  GI50: > 10 µM (inactive)
IGROV-1
  GI50: > 10 µM (inactive)
LOX IMVI
  GI50: > 10 µM (inactive)
A498
  GI50: > 10 µM (inactive)
PC-3
  GI50: > 10 µM (inactive)
NCI-H226
  GI50: > 10 µM (inactive)
BT-549
  GI50: > 10 µM (inactive)
Hs-578T
  GI50: > 10 µM (inactive)
MDA-MB-231
  GI50: > 10 µM (inactive)
MOLT-4
  GI50: > 10 µM (inactive)
OVCAR-4
  GI50: > 10 µM (inactive)
CAKI-1
  GI50: > 10 µM (inactive)
MDA-MB-435
  GI50: > 10 µM (inactive)
NCI-H23
  GI50: > 10 µM (inactive)
HCT-15
  GI50: > 10000 nM
A549
  GI50: > 10 µM (inactive)
OVCAR-5
  GI50: > 10 µM (inactive)
COLO 205
  GI50: > 10 µM (inactive)
OVCAR-3
  GI50: > 10 µM (inactive)
SF-295
  GI50: > 10 µM (inactive)
HL-60
  GI50: > 10 µM (inactive)
HCT-116
  GI50: > 10 µM (inactive)
SK-MEL-28
  GI50: > 10 µM (inactive)
EKVX
  GI50: > 10 µM (inactive)
M14
  GI50: > 10 µM (inactive)
DU-145
  GI50: > 10 µM (inactive)
SW-620
  GI50: > 10 µM (inactive)
RPMI-8226
  GI50: > 10 µM (inactive)
NCI/ADR-RES
  GI50: > 10 µM (inactive)
UO-31
  GI50: > 10 µM (inactive)

## c1ccc(C(=NNc2nc3ccccc3[nH]2)c2ccccn2)nc1
MCF7
  GI50: 0.143 µM (active)
SNB-75
  GI50: 0.218 µM (active)
NCI-H460
  GI50: 0.134 µM (active)
SF-268
  GI50: 0.13 µM (active)
HOP-62
  GI50: 0.207 µM (active)
NCI-H522
  GI50: 0.0288 µM (active)
SK-MEL-2
  GI50: 12.9 µM (inactive)
SK-OV-3
  GI50: 0.103 µM (active)
ACHN
  GI50: 0.114 µM (active)
UACC-62
  GI50: 0.222 µM (active)
UACC-257
  GI50: 0.145 µM (active)
HOP-92
  GI50: 0.0232 µM (active)
TK-10
  GI50: 0.121 µM (active)
CCRF-CEM
  GI50: 0.0313 µM (active)
K562
  GI50: 0.172 µM (active)
T47D
  GI50: 0.0131 µM (active)
SNB-19
  GI50: 0.33 µM (active)
SK-MEL-5
  GI50: 0.159 µM (active)
KM12
  GI50: 0.298 µM (active)
HCC 2998
  GI50: 15 µM (inactive)
OVCAR-8
  GI50: 0.0993 µM (active)
SN12C
  GI50: 0.128 µM (active)
MDA-N
  GI50: 0.394 µM (active)
HT-29
  GI50: 0.0221 µM (active)
786-0
  GI50: 0.123 µM (active)
RXF 393
  GI50: 0.197 µM (active)
SF-539
  GI50: 0.177 µM (active)
U-251
  GI50: 0.171 µM (active)
IGROV-1
  GI50: 0.112 µM (active)
LOX IMVI
  GI50: 0.172 µM (active)
A498
  GI50: 0.36 µM (active)
PC-3
  GI50: 0.224 µM (active)
NCI-H226
  GI50: 0.0625 µM (active)
BT-549
  GI50: 0.48 µM (active)
Hs-578T
  GI50: 7.53 µM (inactive)
MDA-MB-231
  GI50: 0.166 µM (active)
MOLT-4
  GI50: 0.015 µM (active)
OVCAR-4
  GI50: 0.0592 µM (active)
CAKI-1
  GI50: 0.102 µM (active)
MDA-MB-435
  GI50: 0.348 µM (active)
NCI-H23
  GI50: 0.24 µM (active)
HCT-15
  GI50: 115 nM
A549
  GI50: 0.3 µM (active)
OVCAR-5
  GI50: 1.74 µM (inactive)
COLO 205
  GI50: 0.0257 µM (active)
OVCAR-3
  GI50: 0.0393 µM (active)
SF-295
  GI50: 2.13 µM (inactive)
HCT-116
  GI50: 0.0832 µM (active)
SK-MEL-28
  GI50: 0.185 µM (active)
EKVX
  GI50: 0.929 µM (active)
M14
  GI50: 0.126 µM (active)
DU-145
  GI50: 0.268 µM (active)
SW-620
  GI50: 0.0698 µM (active)
RPMI-8226
  GI50: 0.129 µM (active)
SR
  GI50: 37.1 nM (active)
NCI/ADR-RES
  GI50: 0.115 µM (active)
UO-31
  GI50: 0.0847 µM (active)
